Our source for the IC50 values is PubChem BioAssay AID1949 (Southern Research Institute, 2009).

≈ marks a conversion by molar mass, not a printed value. Results filed as inconclusive are left out. Calls of active or inactive are those of the source. The rule behind the calls is not given here. A value given as a limit tells only on which side of the number the result lay.

For the assay, the system named is M. tuberculosis H37Rv growth inhibition. Put plainly: Mycobacterium tuberculosis H37Rv growth inhibition, cell based, confirmatory dose response (AID 1949).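 Note: bacteria grown 7 days with compound before Alamar blue readout.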
For `O=c1cc(-c2ccccc2)[nH]n1-c1ccc([N+](=O)[O-])cc1`, the IC50 – broadly, the concentration that inhibits the measured activity by half – was 10.8 µg/mL (≈ 38.5 µM).
For the compound `CCCN(CCC)C(=S)NC(=O)c1ccc(OC)cc1`, the IC50 is 2.58 µg/mL (≈ 8.76 µM).
With `CSc1nsc(SCC(=O)N2CCc3ccccc32)n1`, the half-inhibitory concentration (IC50) was 12 µg/mL (≈ 37 µM).
As for `CCc1ccc(Oc2coc3cc(OC(C)C(=O)OC)ccc3c2=O)cc1` (centres undefined), the half-inhibitory concentration (IC50) is 3.05 µg/mL (≈ 8.28 µM).
The figure for `COC(=O)COc1ccc(NC(=O)c2ccc(-c3ccccc3)cc2)cc1` is under 0.1 µg/mL; for `CCOc1ccc(NC(=O)COc2ccc(SC)cc2)cc1` it is under 0.1 µg/mL; for `O=C(Nc1ccc(Br)c(Cl)c1)c1ccc(F)cc1` it is 15.7 µg/mL (≈ 47.8 µM).
The figure for `O=C(Oc1cccc2cccnc12)c1ccccc1F` is 2.7 µg/mL (≈ 10.1 µM); for `Cc1cc(Cl)ccc1N1CCN(CCNC(=O)Nc2ccc(F)cc2)CC1` it is > 50 µg/mL (inactive).
The figure for `O=C(CC1(O)C(=O)N(CCc2ccccc2)c2ccc(Cl)cc21)c1cccnc1` (centres undefined) is 6.05 µg/mL (≈ 14.9 µM); for `Cc1ccc(C(=O)NC(=S)Nc2ccc(S(=O)(=O)NC(C)C)cc2)cc1Br` it is 3.75 µg/mL (≈ 7.97 µM); for `Brc1ccc(Nc2nc(-c3ccccn3)cs2)cc1` it is 0.13 µg/mL (≈ 0.391 µM).
In the case of `COc1cc(SC)ccc1C(=O)NCCOc1ccc(F)cc1`, the IC50 was 12.1 µg/mL (≈ 36.2 µM).
In the case of `NC(=O)COc1ccc(C23CC4CC(CC(C4)C2)C3)cc1`, the IC50 is 19.7 µg/mL (≈ 69.2 µM).
As to `C=CCn1c(Sc2ccc(C(F)(F)F)cc2[N+](=O)[O-])nnc1-c1ccccc1Cl`, the 50% inhibitory concentration (IC50) was 0.19 µg/mL (≈ 0.431 µM).
On to `CCOC(=O)c1ccc(COC(=O)c2cccc([N+](=O)[O-])c2)cc1`, for which the IC50 was 1.11 µg/mL (≈ 3.37 µM).
The figure for `CCOc1cc(C(=O)O/N=C(\N)Cc2ccc(Cl)cc2Cl)cc(OCC)c1OCC` is 38 µg/mL (≈ 83.5 µM); for `CCOC(=O)COc1ccc(S(=O)(=O)N2CCC(C)CC2)cc1` it is 1.35 µg/mL (≈ 3.95 µM).
As for `CCOC(=O)Cn1cc(/C=C(/C#N)c2nc3ccc(OC)cc3[nH]2)c2ccccc21`, the figure is 0.74 µg/mL (≈ 1.85 µM); as for `C=C(C)Cn1c(=S)[nH]c2sc3c(c2c1=O)CCc1ccccc1-3`, > 50 µg/mL (inactive); as for `O=C(Oc1c(Cl)cc(Cl)c2cccnc12)c1ccc([N+](=O)[O-])cc1`, 0.88 µg/mL (≈ 2.42 µM).
The figure for `COC(=O)c1c(C)oc2ccc(OC(=O)c3ccc([N+](=O)[O-])cc3)cc12` is > 50 µg/mL (inactive); for `COc1ccc(N2CCN(CC(O)COc3ccc(C)cc3C(C)(C)C)CC2)cc1` (centres undefined) it is 4.09 µg/mL (≈ 9.91 µM); for `CC(=O)c1ccc(OC(=O)c2sc3ccccc3c2Cl)cc1` it is > 50 µg/mL (inactive).
Take `S=C(NCCc1ccccc1)NCCc1ccc(Cl)cc1`: the IC50 is 9.95 µg/mL (≈ 31.2 µM).
The figure for `O=C(NC(=S)Nc1cccc(C(F)(F)F)c1)c1cccs1` is 2.39 µg/mL (≈ 7.23 µM).
As for `Cc1ccc(C(=O)N2CCN(c3ccc(NC(=O)COc4c(C)cc(C)cc4Cl)cc3)CC2)cc1`, the figure is 8.74 µg/mL (≈ 17.8 µM); as for `O=C(Nc1ccc(F)cc1)c1ccc(C#CC2(O)CCCCC2)cc1`, 10.6 µg/mL (≈ 31.4 µM); as for `O=C(Nc1cccnc1)c1ccc2c(c1)C1C3CCC(C3)C1C(c1ccccc1)N2` (centres undefined), 37.5 µg/mL (≈ 94.8 µM).
As for `CC(C)(C)c1cc(Cl)ccc1OCCCCn1ccnc1`, the figure is 1.41 µg/mL (≈ 4.6 µM).
With `CC1=Nc2c(ccc3cccnc23)C1(C)C`, the half-maximal inhibitory concentration (IC50) is 0.19 µg/mL (≈ 0.904 µM).
The figure for `CC1CCCCC1NC(=O)CSc1nc2ccccc2c(=O)[nH]1` (centres undefined) is 18.4 µg/mL (≈ 55.5 µM); for `Cc1oc2ccc(OC(=O)c3ccc(F)cc3)cc2c1C(=O)OC(C)C` it is 2.4 µg/mL (≈ 6.73 µM).
As for `Cc1ccc(NC(=O)COc2ccc(F)cc2)cc1`, the figure is > 50 µg/mL (inactive).
`Cc1cc(C)c2nc(NC3=NC(c4ccccc4)CC(=O)N3)nc(C)c2c1` (centres undefined): the IC50 is > 50 µg/mL (inactive).
As for `Cc1ccc(OCC(=O)NC23CC4CC(CC(C4)C2)C3)cc1C`, the figure is 3.77 µg/mL (≈ 12 µM); as for `Cc1ccc(-c2csc3nc(SCC(N)=O)n(-c4ccccc4)c(=O)c23)cc1C`, 2.98 µg/mL (≈ 7.07 µM); as for `CCCCNCCOc1ccc2ccccc2c1Br`, 7.65 µg/mL (≈ 23.7 µM).
As for `O=C(CN1CCN(CCN2C(=O)c3cccc4cccc(c34)C2=O)CC1)c1ccc(Cl)cc1`, the figure is 6.6 µg/mL (≈ 14.3 µM); as for `CN=c1c([N+](=O)[O-])nn(-c2ccccc2)n1O`, > 50 µg/mL (inactive).
Consider `Cc1cc(C)nc(/N=C(/N)Nc2cc(Oc3ccccc3)ccc2Cl)n1`, for which the IC50 is 4.87 µg/mL (≈ 13.2 µM).
As for `CCOC(=O)c1c(C)n(Cc2ccccc2)c2ccc(OCC(O)CNC(C)(C)C)cc12` (centres undefined), the figure is 4.28 µg/mL (≈ 9.76 µM); as for `COc1ccc(C(=O)CCNc2cccc(C)c2)cc1`, 8.33 µg/mL (≈ 30.9 µM); as for `CC(C)CC(=O)NC(c1ccc(Cl)cc1Cl)c1c(O)ccc2ccccc12` (centres undefined), 1.72 µg/mL (≈ 4.28 µM).
As for `CCOC(=O)c1c(NC(=O)CN2CCN(C)CC2)sc2c1CCC(C)C2` (centres undefined), the figure is 5.8 µg/mL (≈ 15.3 µM); as for `COc1ccc(C(=O)Oc2ccc(C(=O)OCc3ccccc3)cc2)cc1OC`, 1.39 µg/mL (≈ 3.54 µM).
As for `O=C1c2cccc3cccc(c23)C(=O)N1CCN1CCN(CC(O)COCc2ccc(Cl)cc2)CC1` (centres undefined), the figure is 3.05 µg/mL (≈ 6 µM).
For the compound `O=C(CSc1ccc(Cl)cc1)Nc1ccc(Br)cn1`, the IC50 is 3.02 µg/mL (≈ 8.44 µM).
For the compound `Cc1cc(Cl)ccc1NC(=O)CCc1ccc(S(=O)(=O)NC(C)C)cc1`, the IC50 is 2.93 µg/mL (≈ 7.42 µM).
The figure for `Cc1cc(=O)oc2c(C)c(OCC(=O)OCc3ccccc3)ccc12` is 2.11 µg/mL (≈ 6.24 µM).
The figure for `COc1ccc(Br)cc1C(=O)Nc1ccc(N2CCN(C)CC2)cc1` is 12.6 µg/mL (≈ 31.1 µM); for `CC1CCc2c(sc3ncnc(Nc4ccc(OCc5ccccc5)cc4)c23)C1` (centres undefined) it is > 50 µg/mL (inactive); for `Cc1cc(C(=O)Oc2ccccc2)ccc1[N+](=O)[O-]` it is 1.87 µg/mL (≈ 7.27 µM).
The figure for `O=C(CCN1CCC(c2ccccc2)C1)c1ccccc1` (centres undefined) is 12.5 µg/mL (≈ 44.6 µM).
`COC(=O)COc1ccc(/C=C(/C#N)c2nc3ccccc3[nH]2)cc1`: the IC50 was 0.67 µg/mL (≈ 2.01 µM).
Turning to `Cc1cc(C)nc(/N=C(\N)Nc2ccc(OCc3ccc(Cl)cc3)cc2)n1`, the IC50 is 34.4 µg/mL (≈ 90.2 µM).
Take `COc1cccc(Nc2nc(-c3ccccn3)cs2)c1`: the IC50 was 0.17 µg/mL (≈ 0.6 µM).
The figure for `CCn1c2ccccc2c2cc(CN3CCC(N4CCN(c5ccccc5OC)CC4)CC3)ccc21` is 22.4 µg/mL (≈ 46.4 µM); for `CC(C)(C)OC(=O)COc1cc2oc(=O)cc(-c3ccccc3)c2cc1Cl` it is > 50 µg/mL (inactive).
The figure for `CCCCc1ccc(NC(=O)c2cc3cc(Br)cc(OC)c3oc2=O)cc1` is 0.69 µg/mL (≈ 1.6 µM).
As for `CCn1cc(C(=O)O)c(=O)c2cnc(N3CCN(C(=S)Nc4sc5c(c4C(=O)OC)CCCCCC5)CC3)nc21`, the figure is > 50 µg/mL (inactive).
Take `O=C(Nc1ccc([N+](=O)[O-])cc1)c1cc(Br)ccc1O`: the IC50 was 17.9 µg/mL (≈ 53.2 µM).
As for `Cc1ccc(C(=O)NCCC2=CCCCC2)cc1I`, the figure is 2.92 µg/mL (≈ 7.91 µM).
The figure for `CCOC(=O)c1c(-c2ccccc2)oc2ccc(OC(=O)c3cccs3)cc12` is > 50 µg/mL (inactive); for `O=C(NCc1cccs1)c1cc2n(n1)C(C(F)(F)F)CC(c1ccc3c(c1)OCO3)N2` (centres undefined) it is 1.5 µg/mL (≈ 3.33 µM); for `CCC(C)(C)c1ccc(OCCCn2ccnc2)cc1` it is 1.92 µg/mL (≈ 7.05 µM).
As for `COC(=O)COc1cccc(NC(=O)c2cccc(C)c2)c1`, the figure is 2.85 µg/mL (≈ 9.52 µM).
As to `COC(=O)COc1ccc(S(=O)(=O)Nc2cccc(Cl)c2C)cc1`, the IC50 was 9.72 µg/mL (≈ 26.3 µM).
As for `CCOC(=O)c1cc(=O)c(-c2ccccc2)n[nH]1`, the figure is 3.8 µg/mL (≈ 15.6 µM); as for `O=C(OCc1nnc(-c2ccccc2)o1)c1cc(-c2cccs2)nc2ccccc12`, 3.03 µg/mL (≈ 7.33 µM).
As for `Cc1ccc2nc(-c3ccncc3)cc(C(=O)Nc3ccc(C(=O)N4CCCC4)cc3)c2c1`, the figure is 8.89 µg/mL (≈ 20.4 µM); as for `O=C(OCc1c(Cl)cccc1Cl)c1cc2ccccc2oc1=O`, > 50 µg/mL (inactive).
The figure for `COc1cc(Br)cc2cc(C(=O)Nc3ccccc3O)c(=O)oc12` is > 50 µg/mL (inactive); for `COc1cc(CNc2ccc(F)c(Cl)c2)ccc1OCC(=O)NC1CCCCC1` it is 5.53 µg/mL (≈ 13.1 µM).
`CCOC(=O)c1c(NC(=O)c2cc3ccccc3oc2=O)sc(C)c1-c1ccccc1`: the IC50 is > 50 µg/mL (inactive).
The figure for `COC(=O)COc1ccc2c(=O)c(Oc3cnn(-c4ccccc4)c3)c(C)oc2c1` is 3.89 µg/mL (≈ 9.57 µM); for `COc1cc(CNC(C)c2ccccc2)cc(Br)c1OCc1ccc(F)cc1` (centres undefined) it is 4.06 µg/mL (≈ 9.14 µM); for `Cc1ccc(C)c(N2C(=O)c3cccc4c([N+](=O)[O-])ccc(c34)C2=O)c1` it is 0.76 µg/mL (≈ 2.19 µM).
As for `Cn1nc([N+](=O)[O-])nc1Sc1nnc(-c2cccnc2)o1`, the figure is 2.49 µg/mL (≈ 8.16 µM).
As for `COc1cc(CNCc2cccnc2)ccc1OCc1ccc(Cl)cc1Cl`, the IC50 was 8.24 µg/mL (≈ 20.4 µM).
Consider `CCn1c2ccccc2c2nnc(SCCCn3c(=O)[nH]c4ccccc43)nc21`, for which the IC50 was > 50 µg/mL (inactive).
`N#Cc1c(C(F)(F)F)cc(-c2cccs2)nc1SCC(O)CN1CCSCC1` (centres undefined): the IC50 was 10.9 µg/mL (≈ 24.6 µM).
For the compound `O=Cc1ccc(Sc2nnc(-c3ccccc3)o2)o1`, the half-maximal inhibitory concentration (IC50) is 3.39 µg/mL (≈ 12.5 µM).
The figure for `Cc1cc(OCCOCCn2ccnc2)cc(C(C)C)c1` is > 50 µg/mL (inactive); for `COc1ccc(CCNC(=S)N2CCN(c3ccc(Cl)c(Cl)c3)CC2)cc1OC` it is 6.47 µg/mL (≈ 14.2 µM).
For `CCC(C)c1ccccc1OCCCNC1CCCC1` (centres undefined), the IC50 is 8.81 µg/mL (≈ 32 µM).
With `C1=C(c2ccc(Oc3ccccc3)cc2)N2CCN=C2S1`, the half-maximal inhibitory concentration (IC50) is 5.23 µg/mL (≈ 17.8 µM).
As for `O=C(NCc1ccc(Cl)cc1)c1ccccc1-c1ccccc1`, the figure is 13.2 µg/mL (≈ 41.1 µM); as for `c1ccc(OCCCCn2cnc3ccccc32)cc1`, 16 µg/mL (≈ 60.2 µM).
The figure for `CC(=O)c1ccc2[nH]c3ccc(C(C)=O)cc3c2c1` is 0.2 µg/mL (≈ 0.796 µM); for `COc1ccc(OCc2nn3c(-c4ccc(C(C)(C)C)cc4)nnc3s2)cc1` it is > 50 µg/mL (inactive).
The figure for `CC(C)(C)c1ccc(OCC(=O)Nc2ccc3c(c2)OCCO3)c(Br)c1` is 4.25 µg/mL (≈ 10.1 µM); for `CCOc1ccc(NCCC(=O)c2cccs2)cc1` it is 0.86 µg/mL (≈ 3.12 µM).
As to `CCC(=O)Oc1ccc(-c2nc3ccccc3c(=O)o2)cc1`, the IC50 was > 50 µg/mL (inactive).
As for `COc1ccc(NC(=O)c2ccc(C#CC(C)(C)O)s2)cc1`, the IC50 is 0.31 µg/mL (≈ 0.983 µM).
As for `Nc1ncnc(Sc2nc3ccccc3s2)c1[N+](=O)[O-]`, the figure is 0.5 µg/mL (≈ 1.64 µM).
As for `CN(c1ccccc1)c1ccc([N+](=O)[O-])c2nonc12`, the figure is under 0.1 µg/mL; as for `CN(C)C(=O)CSc1cccc2cccnc12`, 6.25 µg/mL (≈ 25.4 µM).
As for `O=C(CSc1nc2ccccc2c(=O)[nH]1)NCc1ccccc1`, the figure is 0.28 µg/mL (≈ 0.86 µM).
